# Tests used:
# Assay in all cases: Test D controlled growth environment herbicide test, pre- and postemergence
# Assay type in all cases: in vivo
# [1] = tested on: deadnettle (henbit deadnettle, Lamium amplexicaule)
# Method in brief: (§1)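 Pre-emergence: seeds sown in silt loam soil were sprayed with compound in a non-phytotoxic solvent mix containing surfactant. Post-emergence: plants at 2 to 18 cm (1- to 4-leaf stage) in peat moss/vermiculite medium got the same formulation. Visual 0–100 rating versus controls after 14 to 21 d.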
# [2] = tested on: buckwheat, wild (wild buckwheat, Polygonum convolvulus)
# Method in brief: as §1
# [3] = tested on: galium (catchweed bedstraw, Galium aparine)
# Method in brief: as §1
# [4] = tested on: ryegrass, Italian (Italian ryegrass, Lolium multiflorum)
# Method in brief: as §1
# [5] = tested on: canarygrass (Phalaris minor)
# Method in brief: as §1
# [6] = tested on: oilseed rape (Brassica napus)
# Method in brief: as §1
# [7] = tested on: field violet (Viola arvensis); conditions: Preemergence
# Method in brief: as §1
# [8] = tested on: windgrass (Apera spica-venti)
# Method in brief: as §1
# [9] = tested on: lambsquarters (Chenopodium album)
# Method in brief: as §1
# [10] = tested on: foxtail, green (green foxtail, Setaria viridis)
# Method in brief: as §1
# [11] = tested on: bromegrass, downy (downy bromegrass, Bromus tectorum)
# Method in brief: as §1
# [12] = tested on: chickweed (common chickweed, Stellaria media)
# Method in brief: as §1
# [13] = tested on: wheat, winter (winter wheat, Triticum aestivum)
# Method in brief: as §1
# [14] = tested on: chamomile (scentless chamomile, Matricaria inodora); conditions: Preemergence
# Method in brief: as §1
# [15] = Postemergence, 31 g ai/ha, scale 0 to 100 (0 no effect, 100 complete control)
# [16] = Postemergence, 125 g ai/ha, visual rating on scale 0 (no effect) to 100 (complete control), 14 to 21 d
# [17] = Postemergence, 250 g ai/ha, scale 0 to 100 (0 no effect, 100 complete control)
# [18] = Preemergence, 62 g ai/ha, scale 0 to 100 (0 no effect, 100 complete control)
# [19] = Preemergence, 125 g ai/ha, scale 0 to 100 (0 no effect, 100 complete control)
# [20] = Preemergence, 250 g ai/ha, scale 0 to 100, 0 no effect, 100 complete control
# [21] = postemergence, 62 g ai/ha, scale 0 to 100, 0 no effect, 100 complete control
# [22] = 62 g ai/ha, scale 0 to 100 (0 no effect, 100 complete control)
# [23] = 125 g ai/ha, scale 0 to 100 (0 no effect, 100 complete control)
# [24] = 250 g ai/ha, scale 0 to 100, 0 no effect, 100 complete control
compound,measurement,setting,value
CCc1sc2ccc(C)cc2c1-c1c(O)c(C)nn(C)c1=O [Compound 47],Deadnettle plant response rating,[1]; [15],20
same,"Plant response rating, Deadnettle",[1]; [16],30
same,"Plant response rating, Deadnettle",[1]; [17],30
same,"Plant response rating (scale of 0 to 100), Deadnettle","[1]; Preemergence, 31 g ai/ha",0
same,"Plant response rating, Deadnettle",[1]; [18],10
same,"Plant response rating, Deadnettle",[1]; [19],10
same,"Plant response rating, Deadnettle",[1]; [20],65
same,"Plant response rating, Deadnettle",[1]; [21],20
same,"Buckwheat, Wild plant response rating",[2]; [15],60
same,"Plant response rating, Buckwheat, Wild",[2]; [16],90
same,"Plant response rating, Buckwheat, Wild",[2]; [17],100
same,"Plant response rating (scale of 0 to 100), Buckwheat, Wild","[2]; Preemergence, 31 g ai/ha",70
same,"Plant response rating, Buckwheat, Wild",[2]; [18],60
same,"Plant response rating, Buckwheat, Wild",[2]; [19],70
same,"Plant response rating, Buckwheat, Wild",[2]; [20],85
same,"Plant response rating, Buckwheat, Wild",[2]; [21],75
same,Galium plant response rating,[3]; [15],65
same,"Plant response rating, Galium",[3]; [16],75
same,"Plant response rating, Galium",[3]; [17],80
same,"Plant response rating (scale of 0 to 100), Galium","[3]; Preemergence, 31 g ai/ha",85
same,"Plant response rating, Galium",[3]; [18],95
same,"Plant response rating, Galium",[3]; [19],100
same,"Plant response rating, Galium",[3]; [20],100
same,"Plant response rating, Galium",[3]; [21],75
same,"Ryegrass, Italian plant response rating",[4]; [15],10
same,"Plant response rating, Ryegrass, Italian",[4]; [16],30
same,"Plant response rating, Ryegrass, Italian",[4]; [17],45
same,"Plant response rating (scale of 0 to 100), Ryegrass, Italian","[4]; Preemergence, 31 g ai/ha",20
same,"Plant response rating, Ryegrass, Italian",[4]; [18],30
same,"Plant response rating, Ryegrass, Italian",[4]; [19],60
same,"Plant response rating, Ryegrass, Italian",[4]; [20],70
same,"Plant response rating, Ryegrass, Italian",[4]; [21],10
same,Canarygrass plant response rating,[5]; [15],0
same,"Plant response rating, Canarygrass",[5]; [16],0
same,"Plant response rating, Canarygrass",[5]; [17],0
same,"Plant response rating (scale of 0 to 100), Canarygrass","[5]; Preemergence, 31 g ai/ha",0
same,"Plant response rating, Canarygrass",[5]; [18],0
same,"Plant response rating, Canarygrass",[5]; [19],0
same,"Plant response rating, Canarygrass",[5]; [20],5
same,"Plant response rating, Canarygrass",[5]; [21],0
same,Oilseed Rape plant response rating,[6]; [15],20
same,"Plant response rating, Oilseed Rape",[6]; [16],55
same,"Plant response rating, Oilseed Rape",[6]; [17],70
same,"Plant response rating (scale of 0 to 100), Oilseed Rape","[6]; Preemergence, 31 g ai/ha",0
same,"Plant response rating, Oilseed Rape",[6]; [18],0
same,"Plant response rating, Oilseed Rape",[6]; [19],10
same,"Plant response rating, Oilseed Rape",[6]; [20],15
same,"Plant response rating, Oilseed Rape",[6]; [21],20
same,"Plant response rating (scale of 0 to 100), Field Violet",[7]; 31 g ai/ha,95
same,"Plant response rating, Field Violet",[7]; [22],100
same,"Plant response rating, Field Violet",[7]; [23],100
same,"Plant response rating, Field Violet",[7]; [24],100
same,Windgrass plant response rating,[8]; [15],10
same,"Plant response rating, Windgrass",[8]; [16],15
same,"Plant response rating, Windgrass",[8]; [17],15
same,"Plant response rating (scale of 0 to 100), Windgrass","[8]; Preemergence, 31 g ai/ha",5
same,"Plant response rating, Windgrass",[8]; [18],5
same,"Plant response rating, Windgrass",[8]; [19],20
same,"Plant response rating, Windgrass",[8]; [20],75
same,"Plant response rating, Windgrass",[8]; [21],10
same,Lambsquarters plant response rating,[9]; [15],45
same,"Plant response rating, Lambsquarters",[9]; [16],70
same,"Plant response rating, Lambsquarters",[9]; [17],70
same,"Plant response rating (scale of 0 to 100), Lambsquarters","[9]; Preemergence, 31 g ai/ha",100
same,"Plant response rating, Lambsquarters",[9]; [18],100
same,"Plant response rating, Lambsquarters",[9]; [19],100
same,"Plant response rating, Lambsquarters",[9]; [20],100
same,"Plant response rating, Lambsquarters",[9]; [21],50
same,"Foxtail, Green plant response rating",[10]; [15],50
same,"Plant response rating, Foxtail, Green",[10]; [16],70
same,"Plant response rating, Foxtail, Green",[10]; [17],80
same,"Plant response rating (scale of 0 to 100), Foxtail, Green","[10]; Preemergence, 31 g ai/ha",0
same,"Plant response rating, Foxtail, Green",[10]; [18],25
same,"Plant response rating, Foxtail, Green",[10]; [19],60
same,"Plant response rating, Foxtail, Green",[10]; [20],100
same,"Plant response rating, Foxtail, Green",[10]; [21],60
same,"Bromegrass, Downy plant response rating",[11]; [15],5
same,"Plant response rating, Bromegrass, Downy",[11]; [16],5
same,"Plant response rating, Bromegrass, Downy",[11]; [17],5
same,"Plant response rating (scale of 0 to 100), Bromegrass, Downy","[11]; Preemergence, 31 g ai/ha",5
same,"Plant response rating, Bromegrass, Downy",[11]; [18],10
same,"Plant response rating, Bromegrass, Downy",[11]; [19],15
same,"Plant response rating, Bromegrass, Downy",[11]; [20],15
same,"Plant response rating, Bromegrass, Downy",[11]; [21],0
same,Chickweed plant response rating,[12]; [15],90
same,"Plant response rating, Chickweed",[12]; [16],95
same,"Plant response rating, Chickweed",[12]; [17],100
same,"Plant response rating (scale of 0 to 100), Chickweed","[12]; Preemergence, 31 g ai/ha",90
same,"Plant response rating, Chickweed",[12]; [18],95
same,"Plant response rating, Chickweed",[12]; [19],100
same,"Plant response rating, Chickweed",[12]; [20],90
same,"Plant response rating, Chickweed",[12]; [21],95
same,"Wheat, Winter plant response rating",[13]; [15],5
same,"Plant response rating, Wheat, Winter",[13]; [16],10
same,"Plant response rating, Wheat, Winter",[13]; [17],5
same,"Plant response rating (scale of 0 to 100), Wheat, Winter","[13]; Preemergence, 31 g ai/ha",5
same,"Plant response rating, Wheat, Winter",[13]; [18],5
same,"Plant response rating, Wheat, Winter",[13]; [19],10
same,"Plant response rating, Wheat, Winter",[13]; [20],10
same,"Plant response rating, Wheat, Winter",[13]; [21],5
same,"Plant response rating (scale of 0 to 100), Chamomile",[14]; 31 g ai/ha,80
same,"Plant response rating, Chamomile",[14]; [22],80
same,"Plant response rating, Chamomile",[14]; [23],85
same,"Plant response rating, Chamomile",[14]; [24],85

# Source: patent US10597388B2, “Pyridazinone herbicides” (FMC CORPORATION, priority 2014, dated 2020)
